Measured values taken from ChEMBL document CHEMBL1275352, “Selection of evodiamine as a novel topoisomerase I inhibitor by structure-based virtual screening and hit optimization of evodiamine derivatives as antitumor agents” (J Med Chem, 2010).

Legend:
Type in all cases: functional, cell-based
A549 = assay: Cytotoxicity against human A549 cells after 3 days by MTT assay
LoVo = assay: Cytotoxicity against human LoVo cells after 3 days by MTT assay
MDA-MB-435 = assay: Cytotoxicity against human MDA-MB-435 cells after 3 days by MTT assay
HCT-116 = assay: Cytotoxicity against human HCT116 cells after 3 days by MTT assay; settings: HCT-116, 72 h
[1] = Homo sapiens, A549, 72 h, read-out: IC50
[2] = Homo sapiens, LoVo, 72 h, read-out: IC50
[3] = Homo sapiens, MDA-MB-435, 72 h, read-out: IC50

Structure (SMILES)	IC50 (A549; [1])	IC50 (LoVo; [2])	IC50 (MDA-MB-435; [3])	IC50 (MDA-MB-435; mda-mb-435)	IC50 (HCT-116)	IC50 (A549; a549)	IC50 (LoVo; lovo)
CC[C@@]1(O)C(=O)OCc2c1cc1n(c2=O)Cc2cc3ccccc3nc2-1 [CAMPTOTHECIN]	0.057 µM	3.1 µM	0.71 µM				
COc1ccc(C(=O)n2c3c(c4ccccc42)CCN2C(=O)c4ccccc4N(C)C32)cc1 (stereo not given)	74 µM			Not Active	45 µM		
Cc1cccc2c1nc1c3ccc4c5c(ccc(c(=O)n21)c53)C(=O)NC4=O				Not Active		Not Active	Not Active
CCCn1c2c(c3ccccc31)CCN1C(=O)c3ccccc3N(C)C21 (stereo not given)				Not Active		Not Active	Not Active
CCOC(=O)n1c2c(c3ccccc31)CCN1C(=O)c3ccccc3N(C)C21 (stereo not given)	130 µM	95 µM	9.4 µM				
CN1c2ccccc2C(=O)N2CCc3c(n(C(=O)c4ccccc4Cl)c4ccccc34)C21 (stereo not given)	14 µM		0.18 µM		4.7 µM		
CC(C)n1c2c(c3ccccc31)CCN1C(=O)c3ccccc3N(C)C21 (stereo not given)				Not Active		Not Active	Not Active
CCOC(=O)Cn1c2c(c3ccccc31)CCN1C(=O)c3ccccc3N(C)C21 (stereo not given)			150 µM			Not Active	Not Active
CN1c2ccccc2C(=O)N2CCc3c(n(C(=O)c4ccccc4)c4ccccc34)C21 (stereo not given)	10 µM	15 µM	0.047 µM				
c1ccc2c(OCc3nc4c5c6c(sc5ncn4n3)CCCCC6)cccc2c1				Not Active		Not Active	Not Active
COc1ccc(Cn2c3c(c4ccccc42)CCN2C(=O)c4ccccc4N(C)C32)cc1 (stereo not given)				Not Active		Not Active	Not Active
CN1c2ccccc2C(=O)N2CCc3c(n(CC(=O)O)c4ccccc34)C21 (stereo not given)	72 µM	130 µM	13 µM				
C=CCN1C(=O)/C(=C2\S/C(=N\c3ccccc3)N(c3ccccc3)C2=O)c2ccccc21				Not Active		Not Active	Not Active
CCc1c2c(nc3ccc(OC(=O)N4CCC(N5CCCCC5)CC4)cc13)-c1cc3c(c(=O)n1C2)COC(=O)[C@]3(O)CC [IRINOTECAN]	6.4 µM	8.8 µM	17 µM				
CN1c2ccccc2C(=O)N2CCc3c(n(C(=O)c4cccc(Cl)c4)c4ccccc34)C21 (stereo not given)	2.9 µM		0.051 µM		3.3 µM		
COCCOC(=O)c1sc2nc3c4ccccc4c(-c4ccc(C)c(C)c4)nn3c(=O)c2c1C		45 µM		Not Active		Not Active	
CCCCCCn1c2c(c3ccccc31)CCN1C(=O)c3ccccc3N(C)C21 (stereo not given)	120 µM	59 µM	110 µM				
CN1c2ccccc2C(=O)N2CCc3c(n(C(=O)c4ccc(Cl)cc4Cl)c4ccccc34)C21 (stereo not given)	5.3 µM		0.39 µM		3.8 µM		
O=S(=O)(c1ccccc1)c1cc2c(O)c3c(ccc4cccnc43)c(O)c2c2ncccc12	120 µM			Not Active			Not Active
CN1c2ccccc2C(=O)N2CCc3c(n(C(=O)c4ccccc4F)c4ccccc34)C21 (stereo not given)	35 µM			Not Active	89 µM		

Structure (SMILES)	IC50 (A549; [1])	IC50 (LoVo; [2])	IC50 (MDA-MB-435; [3])	IC50 (MDA-MB-435; mda-mb-435)	IC50 (HCT-116)	IC50 (A549; a549)	IC50 (LoVo; lovo)
COc1ccc(-c2nc3c4c(-c5ccccc5)c(-c5ccccc5)oc4ncn3n2)cc1OC		75 µM		Not Active		Not Active	
CCCCCN1C(=O)/C(=c2\sc3nc4ccccc4n3c2=O)c2ccccc21				Not Active		Not Active	Not Active
CCOC(=O)C1=C(C)N=c2s/c(=C3\C(=O)N(CC)c4ccccc43)c(=O)n2C1/C=C/c1ccccc1 (stereo not given)				Not Active		Not Active	Not Active
CN1c2ccccc2C(=O)N2CCc3c(n(CC#N)c4ccccc34)C21 (stereo not given)	220 µM		200 µM				Not Active
CCn1c2c(c3ccccc31)CCN1C(=O)c3ccccc3N(C)C21 (stereo not given)				Not Active		Not Active	Not Active
O=c1c2ccccc2nc2c3ccccc3c(Sc3nnc4ccccn34)nn12				Not Active		Not Active	Not Active
CN1c2ccccc2C(=O)N2CCc3c(n(Cc4ccccc4Cl)c4ccccc34)C21 (stereo not given)	29 µM	74 µM	42 µM				
CN1c2ccccc2C(=O)N2CCc3c(n(C(=O)c4ccc(F)cc4)c4ccccc34)C21 (stereo not given)	4.3 µM		0.13 µM		5.1 µM		
CN1c2ccccc2C(=O)N2CCc3c(n(Cc4ccc(Cl)cc4Cl)c4ccccc34)C21 (stereo not given)				Not Active		Not Active	Not Active
COC(=O)c1cc(OCc2cccc(C(F)(F)F)c2)c2c(c1)Oc1nc3ccccc3nc1O2				Not Active		Not Active	Not Active
Cn1c(=O)n(C)c2cc3c(cc21)nc1c2cccc4c(Br)ccc(c(=O)n31)c42				Not Active		Not Active	Not Active
CN1c2ccccc2C(=O)N2CCc3c(n(C(=O)c4ccc([N+](=O)[O-])cc4)c4ccccc34)C21 (stereo not given)	2.8 µM		0.55 µM		4.1 µM		
Cc1ccc(C(=O)n2c3c(c4ccccc42)CCN2C(=O)c4ccccc4N(C)C32)cc1 (stereo not given)	3 µM		0.038 µM		4.3 µM		
c1ccc(Cn2c(-c3ccccc3)c(-c3ccccc3)c3c2ncn2nc(-c4cccnc4)nc32)cc1		180 µM		Not Active		Not Active	
CCOC(=O)C1=C(C)N=c2s/c(=C3\C(=O)N(CC)c4ccccc43)c(=O)n2C1c1ccccc1 (stereo not given)				Not Active		Not Active	Not Active
O=C(NCCO)c1ccc2nc3c4ccccc4c4ccccc4c3nc2c1				Not Active		Not Active	Not Active
CN1c2ccccc2C(=O)N2CCc3c(n(Cc4ccccc4)c4ccccc34)C21 (stereo not given)	55 µM	67 µM	110 µM				
Cc1ccccc1C(=O)n1c2c(c3ccccc31)CCN1C(=O)c3ccccc3N(C)C21 (stereo not given)	4.2 µM		0.15 µM		3.9 µM		
CN1c2ccccc2C(=O)N2CCc3c(n(Cc4cccc(Cl)c4)c4ccccc34)C21 (stereo not given)				Not Active		Not Active	Not Active
CC1CCc2c(sc3nc4c5ccccc5c(-c5ccccc5)nn4c(=O)c23)C1 (stereo not given)				Not Active		Not Active	Not Active
